In EP4775577A1, “RAS INHIBITOR” (Tyligand Bioscience (Shanghai) Limited, priority 2023, dated 2025):

Columns and labels:
Ba/F3-KRAS-G12C-Y96S = assay: Ba/F3 KRAS-mutant cell proliferation inhibition (CellCounting-Lite 2.0); format: cell-based; conditions: Mus musculus, BaF3, Ba/F3-KRAS-G12C-Y96S (KC-2619), 72 h
From the text: (§1) This experiment evaluated the proliferation inhibitory activity of the compounds of the present invention against Ba/F3-KRAS mutant cell lines by using the CellCounting-Lite®2.0 method.
(§2) The following materials, reagents, and instruments were used in this experiment: Cells were all obtained from Kangyuan Bochuang Biotechnology (Beijing) Co., Ltd. RPMI-1640 (Hyclone, SH30809.01); fetal bovine serum (FBS) was used. (GIBCO, 10099-141); Phosphate-buffered saline (PBS) (Solarbio, P1020-500); CellCounting-Lite 2.0 Luminescent Cell Viability Assay (Vazyme, DD1101-02); 96-well plate (Absin, abs7016); Multifunctional microplate reader (BMG LABTECH, CLARIOstar® Plus); CO2 incubator (Thermo Scientific, Model 3100 Series).
(§3) All cell lines were cultured in complete medium at 37°C and 5% CO2. Cells in the logarithmic growth phase were harvested and counted using a platelet counter. Cell viability was assessed using the trypan blue exclusion method to ensure a viability of over 90%. Cell density was adjusted using complete medium (RPMI 1640+10% FBS) and then seeded into 96-well cell culture plates at 90 µL per well, for a total of 3000 cells. The cells in the 96-well plates were cultured at 37°C and 5% CO2. A 10-fold drug solution was prepared using complete medium, and then 10 µL of each serially diluted compound was transferred to the corresponding wells of the 96-well cell culture plate, with two replicates for each drug concentration. The cells in the drug-treated 96-well plates were cultured at 37°C and 5% CO2 for 72 h, followed by CellCounting-Lite 2.0 analysis.
(§4) The CellCounting-Lite 2.0 Luminescent Cell Viability Assay reagent was thawed and the cell plate was equilibrated to room temperature for 30 minutes. An equal volume of CellCounting-Lite 2.0 Luminescent Cell Viability Assay solution was added to each well and the plate was shaken on an orbital shaker for 5 minutes to lyse the cells. The cell plate was placed at room temperature for 20 minutes to stabilize the cryo-luminescence signal. The cryo-luminescence values were read and the data were collected.
(§5) Data was analyzed using GraphPad Prism 7.0 software. A nonlinear S-curve regression was used to fit the data to derive the dose-response curve, and the IC50 value was calculated from this curve. [formula]

Ba/F3-KRAS-G12C-H95R = assay: as above; format: cell-based; conditions: Mus musculus, BaF3, Ba/F3-KRAS-G12C-H95R (KC-2618), 72 h
From the text: as §1, §2, §3, §4, §5

Ba/F3-KRAS-G12C-A59S = assay: as above; format: cell-based; conditions: Mus musculus, BaF3, Ba/F3-KRAS-G12C-A59S (KC-2605), 72 h
From the text: as §1, §2, §3, §4, §5

Ba/F3-KRAS-G12C-Q99L = assay: as above; format: cell-based; conditions: Mus musculus, BaF3, Ba/F3-KRAS-G12C-Q99L (KC-2611), 72 h
From the text: as §1, §2, §3, §4, §5

Ba/F3-KRAS-G12C-R68M = assay: as above; format: cell-based; conditions: Mus musculus, BaF3, Ba/F3-KRAS-G12C-R68M (KC-2604), 72 h
From the text: as §1, §2, §3, §4, §5

[1] = test system: KRAS G12D mutant AGS cells; assay: Proliferation inhibition of AGS cells, CellTiter-Glo assay; format: cell-based, human; conditions: Homo sapiens, AGS, 72 h, 3 days, CTG; read-out: AGS IC50/nM
How it was run: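 AGS cells at 1500 cells/well in F12K + 10% FBS were exposed for 3 days at 37°C to nine 3-fold dilutions from 10 µM top concentration, in duplicate. Viability read by CellTiter-Glo luminescence; IC50 (nM) from dose-response-inhibition fitting.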

[2] = 0.05uM, read-out: Inhibition rate% @0.05uM
[3] = 1uM, read-out: Inhibition rate% @1uM

## CCN1CC/C(=C\F)[C@](C)(COc2nc(N3Cc4c(COC)c(C(=O)N(C)C)nn4CC[C@@H]3C)c3cc(Cl)c(-c4c(F)ccc5sc(N)c(C#N)c45)c(F)c3n2)C1 (single isomer, unassigned) [Example 228A]
Ba/F3-KRAS-G12C-Y96S; [2]
  inhibition at 0.05 µM: 45.4%
Ba/F3-KRAS-G12C-Y96S; [3]
  inhibition at 1 µM: 74.9%
Ba/F3-KRAS-G12C-H95R; [2]
  inhibition at 0.05 µM: 71.9%
Ba/F3-KRAS-G12C-H95R; [3]
  inhibition at 1 µM: 98.6%
Ba/F3-KRAS-G12C-A59S; [2]
  inhibition at 0.05 µM: 83.3%
Ba/F3-KRAS-G12C-A59S; [3]
  inhibition at 1 µM: 97.4%
Ba/F3-KRAS-G12C-Q99L; [2]
  inhibition at 0.05 µM: 93.9%
Ba/F3-KRAS-G12C-Q99L; [3]
  inhibition at 1 µM: 98.1%
Ba/F3-KRAS-G12C-R68M; [2]
  inhibition at 0.05 µM: 91.6%
Ba/F3-KRAS-G12C-R68M; [3]
  inhibition at 1 µM: 96.6%
[1]
  IC50: < 1.5 nM
